“Also recorded” adds a separate entry of the source. Numbered stars: 1 amine (or outer) side, 2 acyl side, 3 side chain; on linkers, the order of the positions; unused ones are H or OH. Bridge positions count the residues as written; N and C are the ends. Square brackets hold non-standard residues; d marks the D form. Peptide text beside a SMILES is read from it. I, II: the chains in the order shown. * marks the point of attachment. Actinocin(9to1) = Cc1c2oc3c(C)ccc(C(=O)[*:1])c3nc-2c(C(=O)[*:2])c(N)c1=O; NMeV = CN[C@H](C(=O)O)C(C)C; Cbz = O=C(OCc1ccccc1)*; Sar = CNCC(=O)O; CH2F = FC*
Columns and labels:
primary human neurons = assay: Microinjection of Aβ peptides into the cytosol of primary human neurons, cell death by TUNEL; assay type: cell-based; conditions: for neuronal cell death (in words): fibrillized or non-fibrillized preparation, 10 nM, 24, 48 and 96 hours; for intracellular toxicity to human neurons (in words): peptide microinjected into cytosol
Protocol: Cell cultures. Primary cultures of human neurons and astrocytes were prepared as described in LeBlanc, A., J. Neurosci. 15:7837-46 (1995), incorporated herein by reference. Fresh brain tissues were dissociated with 0.25% trypsin (Gibco-BRL) in phosphate buffered saline (PBS) at 37° C. for 15 minutes. The trypsin was inactivated. by adding 10% decomplemented fetal bovine serum (FBS, HyClone, Logan, Utah.) to the mixture. The dissociated tissues were triturated in 0.1 mg/ml DNaseI (Gibco-BRL) to obtain a homogeneous mixture. The mixture was filtered successively through 130 and 70 gm filters and centrifuged at 15,000 g for 10 minutes at 10° C. to pellet the cells. The cell pellet was washed once with PBS and once with minimal essential media (MEM, Gibco-BRL) in Earle's balanced salt solution containing 0.225% sodium bicarbonate, 1 mM sodium pyruvate, 2 mM L-glutamine, 0.1% dextrose, 1×antibiotic Pen-Strep (all from Gibco-BRL) and 5% decomplemented FBS.
The cells were plated on poly-L-lysine-coated ACLARTM (Cat. No.: 33C; thickness: 0.5 mm; Allied Chemical, Minneapolis, Minn.) coverslips at a density of 3×10^6 cells/ml. Neurons and astrocytes were incubated at 37° C. in the MEM media with 5% CO2, and the media were changed every 48 hours. For neuron culture, 1 mM fluorodeoxyuridine (FDU, Gibco-BRL) was applied for the first 3 feedings and after that, used weekly to prevent proliferation of dividing cells. […] Microinjection or treatment was performed 10 days after plating for neurons and astrocytes.
Aβ peptides. Aβ peptides (Bachem, King of Prussia, Pa.) were dissolved in sterile distilled water at 25 μM and incubated at 37° C. for 5 days. The peptides stock solutions were frozen and diluted in 1×PBS immediately before microinjection. […] A 250 μl aliquot was diluted to 0.25 μM and immediately frozen at −20° C. in aliquots of 50 μl. The remaining solution was incubated at 37° C. in Eppendorf tubes with continuous mixing by inversion. After incubation, the samples were removed, vortexed, sonicated twice for 1 minute in a bath type sonicator (ELMA GmbH & Co. KG, Germany) and frozen at −20° C. in […]. Each aliquot was used once to avoid possible effects of freeze and thaw cycles.
(§1) Microinjection. Thin-walled Borosilicate glass capillaries (OD 1.0 mm, ID 0.5 mm) with microfilament (MTW1OOF-4, World Precision Instrument, Sarasota, Fla.) were pulled with a Flaming/Brown Micropipefte Puller (β-87, Sutter, Novato, Calif.) to obtain injection needles with a tip diameter of ˜0.5 μm. Microinjection was performed in the cytosol of each cell using the Eppendorf Microinjector 5246 (Hamburg, Germany) and Burleigh Micromanipulator MIS-5000 (Victor, N.Y.). Human neurons were injected with 25 pl/shot at an injection pressure of 100 hPa, a compensation pressure of 50 hPa, and an injection time of 0.1 s. Human astrocytes, M17, NT2 and La—N-1 cells were injected with 8 pl/shot at an injection pressure of 50 hPa, a compensation pressure of 30 hPa and an injection time of 0.1 s.
The diluted peptides were injected at the indicated concentrations with 100 μg/ml dextran Texas Red (DTR) (MW: 3000, Molecular Probes, Eugene, Oreg.) as a fluorescent marker to recognize the injected cells.
(§2) Measurement of neuronal apoptosis. Cells were fixed in freshly prepared 4% paraformaldehyde/4% sucrose for 20 minutes at room temperature and permeabilized in 0.1% Triton X-100, 0.1% sodium citrate on ice for 2 minutes. Terminal deoxynucleotidyl transferase-mediated dUTP nick end labeling (TUNEL) was performed using the In Situ Cell Death Detection Kit I as described by the manufacturer (Roche Molecular Biochemicals).

[1] = tested on: Aβ1-42-mediated neuronal cell death; assay: Inhibition of Aβ1-42-mediated neuronal cell death in Aβ1-42-microinjected neurons, TUNEL; assay type: cell-based, human; conditions: 1 hour pre-incubation, 24 hours; for prevention of Aβ1-42-induced neuronal cell death (in words) / inhibition of the Aβ1-42-induced cell death: 5 μM inhibitor; for block of Aβ1-42-induced neuronal death (in words): 5 μg/ml cycloheximide or 5 μM actinomycin D
Protocol: cDNA Clones. Human Bcl-2 cDNA, Bax α cDNA, and APP695 cDNA were cloned into pCep4β (Invitrogen Canada, Burlington, ON, Canada). The p53 wild type and p53R273H dominant negative cDNA may be cloned in the pCMV-NEO vector. These cDNAs were purified through GlassMAXTM (Gibco-BRL, Rockville, Mass.) and diluted at 30 ng/μl in PBS before injection.
Neutralizing Bax antibodies. Monoclonal anti-Bax 6A7 (amino acids 12-24: Pharmingen, San Diego, Calif.) and 2D2 (amino acids 3-16: Trevigen, Gaithersburg, Md.), polyclonal anti-Bax N-20 (Santa Cruz Biotechnology, Santa Cruz, Calif.), monoclonal anti-APP 22C11 (Roche Molecular Biochemicals, Laval, PQ, Canada), mouse IgG or rabbit sera were diluted at 50 μg/ml (for 6A7, 2D2, mouse IgG and 22C11) or 25 μg/ml (for polyclonal anti-Bax and rabbit sera) in PBS before use. A toxicity curve was done to determine this concentration as the highest non-toxic concentration that can be injected in neurons.
as §1
as §2, with “Biochemicals). The percentage of cell death was determined as the ratio of the number of DTR-TLUNEL-double-positive cells over the total number of DIR-positive cells.” for “Biochemicals).”
Treatment with caspase inhibitors, cycloheximide, actinomycin D. Caspase pan inhibitor, Z-Valine-Alanine-Aspartic acid-fluoromethylketone (Z-VAD-fmk) (Biomol, Plymounth Meeting, PA); caspase-6 inhibitor, Z-Valine-Glutamic acid-Isoleucine-Aspartic acid-fmk (Z-VEID-fnk); caspase-3 inhibitor, Z-Aspartic acid-Glutamic acid-Valine-Aspartic acid-fmk (Z-DEVD-fmk); and caspase-8 inhibitor, Z-Isoleucine-Glutamic acid-Threomine-Aspartic acid-fmk (Z-IETD-fmk) (Sigma, Oakville, ON, Canada) were dissolved in 100% dimethylsulphoxide (DMSO, Sigma) at 5 mM and were diluted at 5 μM into culture medium immediately before use. The medium was changed every 48 hours.
Stock solutions of 5 mg/ml cycloheximide and 200 IM actinomycin D were made in sterile distilled water and diluted to 5 μg/ml for cycloheximide and 5 μM for actinomycin D in the culture medium immediately before use.
Dextran Texas Red (DTR) was co-injected with Aβ1-42 to identi the injected cells from the non-injected cells. The experiment was done on 200 microinjected neurons per preparation of neurons and on three independent neuron preparations.

human neurons = assay: Exposure of human neurons to extracellular Aβ peptides, TUNEL and propidium iodide; assay type: cell-based; conditions: 10 μM extracellular, 24 hours
Protocol: To test if this particular batch of peptide might be neurotoxic, neurons were treated with 10 μM of peptides for 24 hours.

non-fibrillized Aβ1-40: disaggregated Aβ1-40 diluted and immediately frozen
neuronal cell death (in words) (primary human neurons): neither fibrillized nor non-fibrillized Aβ1-40 cause significant cell death

COC(=O)C[C@H](NC(=O)[C@H](C)NC(=O)[C@@H](NC(=O)OCc1ccccc1)C(C)C)C(=O)CF [Z-VAD-fmk, Z-Valine-Alanine-Aspartic acid-fluoromethylketone] (Cbz-Val-Ala-Asp(OMe)-CH2F)
prevention of Aβ1-42-induced neuronal cell death (in words) [1]: completely prevents

Z-Valine-Glutamic acid-Isoleucine-Aspartic acid-fmk [Z-VEID-fmk]
prevention of Aβ1-42-induced neuronal cell death (in words) [1]: completely prevents

CC[C@H](C)[C@H](NC(=O)OCc1ccccc1)C(=O)N[C@@H](CCC(=O)O)C(=O)N[C@H](C(=O)N[C@@H](CC(=O)O)C(=O)CF)[C@@H](C)O [Z-IETD-fmk, Z-Isoleucine-Glutamic acid-Threomine-Aspartic acid-fmk] (Cbz-IETD-CH2F)
prevention of Aβ1-42-induced neuronal cell death (in words) [1]: completely prevents

COC(=O)C[C@H](NC(=O)[C@H](C)NC(=O)[C@@H](NC(=O)[C@H](Cc1ccc(O)cc1)NC(=O)OCc1ccccc1)C(C)C)C(=O)CF [Z-YVAD-fmk]
inhibition of the Aβ1-42-induced cell death [1]: 30%

Aβ1-40: 40 amino acid amyloid β peptide (SEQ ID NO: 1)
effect on cell viability (primary human neurons; 10 nM aged peptide, between 24 and 96 hours): do not affect cell viability
cell death of microinjected neurons (primary human neurons; 10 nM aged peptide, sixteen days after injection): 50%
intracellular toxicity to human neurons (in words) (primary human neurons): not observed to be toxic; also recorded: significant apoptosis only 16 days after microinjection
toxicity of extracellular peptide (in words) (human neurons): do not undergo cell death; also recorded: Neither extracellular Aβ1-40, Aβ1-42, or Aβ40-1 are toxic

fibrillized Aβ1-40: Aβ1-40 incubated at 37° C. with mixing
neuronal cell death (in words) (primary human neurons): neither fibrillized nor non-fibrillized Aβ1-40 cause significant cell death

CC(C)[C@H](NC(=O)[C@H](CCC(=O)O)NC(=O)[C@H](CC(=O)O)NC(=O)OCc1ccccc1)C(=O)N[C@@H](CC(=O)O)C(=O)CF [Z-DEVD-fmk, Z-Aspartic acid-Glutamic acid-Valine-Aspartic acid-fmk]
inhibition of the Aβ1-42-induced cell death [1]: 30%

Cc1c2oc3c(C)ccc(C(=O)N[C@@H]4C(=O)N[C@H](C(C)C)C(=O)N5CCC[C@H]5C(=O)N(C)CC(=O)N(C)[C@@H](C(C)C)C(=O)O[C@@H]4C)c3nc-2c(C(=O)N[C@@H]2C(=O)N[C@H](C(C)C)C(=O)N3CCC[C@H]3C(=O)N(C)CC(=O)N(C)[C@@H](C(C)C)C(=O)O[C@@H]2C)c(N)c1=O [actinomycin D] (I: T[dV]P[Sar][NMeV] / II: T[dV]P[Sar][NMeV]; ester I:1-I:C, II:1-II:C; linker I:N-II:N via Actinocin(9to1))
block of Aβ1-42-induced neuronal death (in words) [1]: efficiently block

C[C@@H]1C[C@@H]([C@H](O)CC2CC(=O)NC(=O)C2)C(=O)[C@@H](C)C1 [cycloheximide]
block of Aβ1-42-induced neuronal death (in words) [1]: efficiently block

non-fibrillized Aβ1-42: disaggregated Aβ1-42 diluted and immediately frozen
intracellular toxicity to human neurons (in words) (primary human neurons): as neurotoxic as fibrillized

From patent publication US20040248766A1, “Selective inhibition of intracellular amyloid-beta neurotoxicity in human neurons” (priority 2001, published 2004)
